Laboratory results from patent publication US10981902B2 (Merck Sharp & Dohme Corp., priority 2017, dated 2021).
pEC50: −log10 of the molar value.

Molecular target: T1, human M4 muscarinic acetylcholine receptor (Homo sapiens, UniProt P08173)
T1 construct: expressed in transfected cells; host or cells: CHO-K1
T1 sequence (P08173 1-479): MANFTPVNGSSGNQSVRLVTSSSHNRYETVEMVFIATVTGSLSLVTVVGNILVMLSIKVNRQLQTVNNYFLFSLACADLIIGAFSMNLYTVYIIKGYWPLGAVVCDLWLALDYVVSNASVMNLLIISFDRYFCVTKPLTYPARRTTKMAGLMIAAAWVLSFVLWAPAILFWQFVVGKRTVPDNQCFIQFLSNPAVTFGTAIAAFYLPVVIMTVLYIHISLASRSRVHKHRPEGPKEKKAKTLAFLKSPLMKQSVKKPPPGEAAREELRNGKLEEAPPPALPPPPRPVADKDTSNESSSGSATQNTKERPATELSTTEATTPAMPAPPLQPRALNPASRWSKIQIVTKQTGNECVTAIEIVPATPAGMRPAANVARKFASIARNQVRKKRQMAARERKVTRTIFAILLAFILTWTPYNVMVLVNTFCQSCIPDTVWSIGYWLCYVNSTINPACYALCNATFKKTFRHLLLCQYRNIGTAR
Assay: human FLIPR-based M4 PAM assay (calcium mobilization, CHO-K1 cells with human M4 receptor and Gαqi5)
Format: cell-based
Details: inflection point (IP) of dose response curve, acetylcholine added at 20% of maximum response, read-out: M4 FLIPPR Hu IP
Method: In a typical experiment the M4 muscarinic acetylcholine receptor modulating activity of the compounds of the present invention was determined in accordance with the following experimental method. CHO-K1 cells stably transfected with human M4 receptor and chimeric G-protein Gαqi5 (Coward P, et al., Analytical Biochemistry, 270:242-248 (1999)) are thawed from liquid N2 storage, resuspended in growth medium, plated in black, clear bottom 384 well plates, and incubated 16-20 hours at 37° C., 5% CO2. On the day of assay, growth medium is removed, the cells are washed 2 times with wash buffer, and cells are incubated in dye loading buffer at 37° C., 5% CO2 for ˜1 hour. Following dye loading the cell plates are placed in a FLIPR Tetra instrument and while monitoring dye fluorescence (excitation […]), 10 uL of test substance at increasing concentrations is added, and fluorescence values are recorded for 4 min. Next, 10 uL of acetylcholine is added (final concentration calculated so as to achieve 20% of the maximum acetycholine response), and the fluorescence reading is continued for 3.5 min. In some cases, a third addition of acetylcholine (final concentration calculated to achieve 70% of the maximal acetylcholine response) is performed. The resulting dose response curves are fit to a 4 parameter logistic equation and the final result is determined as the inflection point (IP) of the curve
CHO-K1 cells stably transfected with human M4 receptor and chimeric G-protein Gαqi5 are thawed from liquid N2 storage, resuspended in growth medium, plated in black, clear bottom 384 well plates, and incubated 16-20 hours at 37° C., 5% CO2.
On the day of assay, growth medium is removed, the cells are washed 2 times with wash buffer, and cells are incuabted in dye loading buffer at 37° C., 5% CO2 for ˜1 h. Following dye loading the cell plates are placed in a FLIPR Tetra instrument and while monitoring dye fluorescence ([…]), 10 uL of test substance at increasing concentrations is added, and fluorescence values are recorded for 4 min. Next, 10 uL of acetylcholine is added (final concentration calculated so as to achieve 20% of the maximum acetycholine response), and the fluorescence reading is continued for 3.5 min. In some cases, a third addition of acetylcholine (final concentration calculated to achieve 70% of the maximal acetylcholine response) is performed.

## CC1(Cc2ncc(-c3cc4c(nc3-c3cnc5c(c3)C(=O)NC5)C(F)CC4)o2)CCCC1 (single isomer, unassigned) [Example 44, 3-(7-fluoro-3-(2-((1-methylcyclopentyl)methyl)oxazol-5-yl)-6,7-dihydro-5H-cyclopenta[b]pyridin-2-yl)-6,7-dihydro-5H-pyrrolo[3,4-b]pyridin-5-one]
  pEC50: 7.62

## CN1C(=O)c2cc(-c3nc4c(cc3-c3cnc(CC5(C)CCCC5)o3)CCC4)cnc2C1=O [Example 10, 6-methyl-3-(3-(2-((1-methylcyclo-pentyl)methyl)oxazol-5-yl)-6,7-dihydro-5H-cyclopenta[b]-pyridin-2-yl)-5H-pyrrolo[3,4-b]-pyridine-5,7(6H)-dione]
  pEC50: 6.68

## N#Cc1ccc(-c2cnc(CC3CCCC3)o2)c(N2CCn3ccnc3C2)n1 [Example 58, 5-(2-(cyclopentylmethyl)oxazol-5-yl)-6-(5,6-dihydroimidazo[1,2-a]pyrazin-7(8H)-yl) picolinonitrile]
  pEC50: 7.77

## FC1(Cc2ncc(-c3cccnc3-c3ccn4ccnc4c3)o2)CCCC1 [Example 78, 2-((1-fluorocyclopentyl)methyl)-5-(2-(imidazo[1,2-a]pyridin-7-yl)pyridin-3-yl) oxazole]
  pEC50: 6.98

## O=C1c2cc(-c3nc4c(cc3-c3cnc(CC5CCCC5)o3)CCC4)cnc2CN1CC1CC1 [Example 52, 3-(3-(2-(cyclopentylmethyl)oxazol-5-yl)-6,7-dihydro-5H-cyclopenta[b]pyridin-2-yl)-6-(cyclopropylmethyl)-6,7-dihydro-5H-pyrrolo[3,4-b] pyridin-5-one]
  pEC50: 6.75

## Cc1cn2ccc(-c3nc(C#N)ccc3-c3cnc(CCC(F)(F)C(F)(F)F)o3)cc2n1 [Example 108, 6-(2-methylimidazo [1,2-a]pyridin-7-yl)-5-(2-(3,3,4,4,4-pentafluorobutyl)oxazol-5-yl) picolinonitrile]
  pEC50: 6.88

## CC(C)(C)Cc1ncc(-c2cc(F)cnc2-c2ccn3ccnc3c2)o1 [Example 27, 5-(5-fluoro-2-(imidazo[1,2-a]-pyridin-7-yl)-pyridin-3-yl)-2-neopentyloxazole]
  pEC50: 6.95

## COc1cc2ccc(-c3nc(C)ccc3-c3cnc(C(F)(F)C4CCCC4)o3)cc2nn1 [Example 102, 2-(cyclopentyldifluoromethyl)-5-(2-(3-methoxycinnolin-7-yl)-6-methylpyridin-3-yl)oxazole]
  pEC50: 7.29

## Cc1cn2ccc(-c3nc(C#N)ccc3-c3cnc(CC4CC4)o3)cc2n1 [Example 60, 5-(2-(cyclopropylmethyl)oxazol-5-yl)-6-(2-methylimidazo[1,2-a]pyridin-7-yl)picolinonitrile]
  pEC50: 7.10

## COc1cc2ccc(-c3nc(C(F)F)ccc3-c3cnc(CC(C)(C)C)o3)cc2nn1 [Example 14, 5-(6-(difluoro-methyl)-2-(3-methoxycinnolin-7-yl)pyridin-3-yl)-2-neopentyloxazole]
  pEC50: 6.76

## COc1cc2ccc(-c3nc(C)ccc3-c3cnc(Cc4ccccc4F)o3)cc2nn1 [Example 48, 2-(2-fluorobenzyl)-5-(2-(3-methoxycinnolin-7-yl)-6-methylpyridin-3-yl)oxazole]
  pEC50: 7.72

## Cc1nc2cc(-c3nc(C#N)ccc3-c3cnc(CC(C)(C)C(F)(F)F)o3)ccn2n1 [Example 110, 6-(2-methyl-[1,2,4]triazolo [1,5-a]pyridin-7-yl)-5-(2-(3,3,3-trifluoro-2,2-dimethylpropyl)oxazol-5-yl)picolinonitrile]
  pEC50: 6.93

## CN1Cc2ccc(-c3nc(C(F)F)ccc3-c3cnc(CC(C)(C)C)o3)cc2C1=O [Example 15, 6-(6-(difluoro-methyl)-3-(2-neopentyloxazol-5-yl)pyridin-2-yl)-2-methylisoindolin-1-one]
  pEC50: 7.10

## CC(C)(C)CCc1ncc(-c2ccc(C#N)nc2-c2ccc3cccnc3c2)o1 [Example 65, 5-(2-(3,3-dimethylbutyl)oxazol-5-yl)-6-(quinolin-7-yl)picolinonitrile]
  pEC50: 7.02

## CN1Cc2ccc(-c3nc(C#N)ccc3-c3cnc(CC(C)(C)C(F)(F)F)o3)cc2C1=O [Example 22, 6-(2-methyl-3-oxoisoindolin-5-yl)-5-(2-(3,3,3-trifluoro-2,2-dimethylpropyl)-oxazol-5-yl)picolino-nitrile]
  pEC50: 7.12

## N#Cc1ccc(-c2cnc(CC(F)C3CC3)o2)c(-c2ccn3ccnc3c2)n1 (stereo not shown) [Example 85, 5-(2-(2-cyclopropyl-2-fluoroethyl)oxazol-5-yl)-6-(imidazo[1,2-a]pyridin-7-yl) picolinonitrile]
  pEC50: 7.31

## Cc1ccc(-c2cnc(Cc3ccc(F)cc3)o2)c(N2CCn3ccnc3C2)n1 [Example 59, 5-(2-(5,6-dihydroimidazo[1,2-a]pyrazin-7(8H)-yl)-6-methylpyridin-3-yl)-2-(4-fluorobenzyl)oxazole]
  pEC50: 6.34

## COCc1cn2ccc(-c3nc(C#N)ccc3-c3cnc(CC(C)(C)C)o3)cc2n1 [Example 37, 6-(2-(methoxy-methyl)imidazo-[1,2-a]pyridin-7-yl)-5-(2-neopentyl-oxazol-5-yl)picolino-nitrile]
  pEC50: 7.11

## Cc1cn2ccc(-c3nc(C#N)ccc3-c3cnc(CC4(O)CCCC4)o3)cc2n1 [Example 75, 5-(2-((1-hydroxycyclopentyl)methyl)oxazol-5-yl)-6-(2-methylimidazo [1,2-a]pyridin-7-yl) picolinonitrile]
  pEC50: 6.64

## CC(C)(F)CCc1ncc(-c2ccc(C#N)nc2-c2ccc3cccnc3c2)o1 [Example 103, 5-(2-(3-fluoro-3-methylbutyl)oxazol-5-yl)-6-(quinolin-7-yl)picolinonitrile]
  pEC50: 7.07

## CC(C)(C)Cc1ncc(-c2ccc(C(F)F)nc2-c2ccn3ccnc3c2)o1 [Example 19, 5-(6-(difluoro-methyl)-2-(imidazo-[1,2-a]pyridin-7-yl)pyridin-3-yl)-2-neopentyloxazole]
  pEC50: 7.14

## Cc1cn2ccc(-c3nc(C#N)ccc3-c3cnc(CC4(F)CCCC4)o3)cc2n1 [Example 79, 5-(2-((l-fluorocyclopentyl)methyl)oxazol-5-yl)-6-(2-methylimidazo [1,2-a]pyridin-7-yl) picolinonitrile]
  pEC50: 7.51

## Cc1cn2ccc(-c3nc(C#N)ccc3-c3cnc(CCC(O)C(F)(F)F)o3)cc2n1 (stereo not shown) [Example 106, 6-(2-methylimidazo[1,2-a]pyridin-7-yl)-5-(2-(4,4,4-trifluoro-3-hydroxybutyl)oxazol-5-yl)picolinonitrile]
  pEC50: 6.84

## CN1Cc2ccc(-c3nc4c(cc3-c3cnc(CC5(C)CCCC5)o3)CCC4=O)cc2C1=O [Example 41, 2-(2-methyl-3-oxoisoindolin-5-yl)-3-(2-((1-methyl-cyclopentyl)-methyl)oxazol-5-yl)-5,6-dihydro-7H-cyclopenta[b]-pyridin-7-one]
  pEC50: 7.35

## CC1(Cc2ncc(-c3cc4c(nc3-c3ccc5ccc(F)nc5c3)C(=O)CC4)o2)CCCC1 [Example 43, 2-(2-fluoroquinolin-7-yl)-3-(2-((1-methylcyclopentyl)methyl)oxazol-5-yl)-5,6-dihydro-7H-cyclopenta[b]pyridin-7-one]
  pEC50: 7.37

## CN1Cc2ccc(-c3nc(C(F)F)ccc3-c3cnc(CC(C)(C)C(F)(F)F)o3)cc2C1=O [Example 26, 6-(6-(difluoromethyl)-3-(2-(3,3,3-trifluoro-2,2-dimethylpropyl)-oxazol-5-yl)pyridin-2-yl)-2-methylisoindolin-1-one]
  pEC50: 7.20

## CC1(Cc2ncc(-c3cc4c(nc3-c3ccc5ccc(F)nc5c3)C(O)CC4)o2)CCCC1 (stereo not shown) [Example 42, 2-(2-fluoroquinolin-7-yl)-3-(2-((1-methylcyclopentyl)methyl)oxazol-5-yl)-6,7-dihydro-5H-cyclopenta[b]pyridin-7-ol]
  pEC50: 7.19

## Cc1ccc(-c2cnc(Cc3ccccc3)o2)c(-c2ccc3cccnc3c2)n1 [Example 47, 2-benzyl-5-(6-methyl-2-(quinolin-7-yl)pyridin-3-yl)oxazole]
  pEC50: 7.62
